Measured values as given in ChEMBL document CHEMBL1949669, “Imidazopyridines as selective CYP3A4 inhibitors” (Bioorg Med Chem Lett, 2012).
Values after ≈ are worked out from the molar mass of the structure shown.

Assays:
[1] = Solubility of the compound; type: physicochemical
[2] = Half life in human liver microsomes; type: ADME, Microsome
[3] = Half life in human hepatic S9 fraction; type: ADME, subcellular, Liver

O=C(Nc1ccc(-c2ccccc2)cc1)Nc1ccc(-c2ccnc3[nH]cnc23)cc1
solubility [1]: 2 µM (≈ 0.811 µg/mL)

CCOC(=O)c1cccc(NC(=O)Nc2ccc(-c3ccnc4[nH]cnc34)cc2)c1
half-life [2]: 8 min | half-life [3]: 8 min
